{"source": "patent US20250169500A1", "about": "“METHOD AND APPARATUS FOR CONTROLLING WEEDS BY POST-HARVEST TREATMENT OF WEED SEEDS” (BAYER CROPSCIENCE LP, priority 2022, published 2025)", "test_system": "Palmer Amaranth", "assay": "Field treatment of crop residue material with diluted indaziflam suspension concentrate at soybean harvest; Palmer Amaranth infestation in the next growing season", "assay_type": "in vivo", "details": "about 1 g of indaziflam per hectare of spread crop residue material, applied at the expelling end of the seed pulverizer during harvest; assessed in the next growing season", "procedure": "A crop of soybeans is grown infested with Palmer Amaranth. The soybean crop is grown to harvest and the Palmer amaranth is in the seed stage, just before seed drop. A combine harvester equipped with a follow-along seed pulverizer as described in WO 2009/100500 A is used to harvest the crop. The seed pulverizer is fitted with a liquid applicator at the expelling end to treat crop residue material expelled from the pulverizer with a diluted indaziflam suspension concentrate—before the expelled material touches the ground—such that the combine harvester-pulverizer deposits treated crop residue material such that the land so harvested is treated with about 1 g of indaziflam per hectare of spread crop residue material, without treating the land directly.\nIn the next growing season, another soybean crop has less than 10% of the volume of Palmer Amaranth compared to the present soybean harvest.", "data": [{"compound": "Cc1ccc2c(c1)[C@H](Nc1nc(N)nc(C(C)F)n1)[C@@H](C)C2", "note": "(mixture of isomers) [indaziflam, 2-N-[(1R,2S)-2,3-dihydro-2,6-dimethyl-1H-inden-1-yl]-6-[(1RS)-1-fluoroethyl]-1,3,5-triazine-2,4-diamine]", "values": [{"measurement": "volume of Palmer Amaranth in next season's soybean crop compared to the present soybean harvest", "result": "less than 10%"}]}]}
